Assay results reported in ChEMBL document CHEMBL3286130, “8-Substituted 2-alkynyl-N(9)-propargyladenines as A2A adenosine receptor antagonists” (Bioorg Med Chem, 2014).
Calls of active or inactive are those of the source. The calls are words filed in the database; no cut-off is given here.

Assays:
Adenosine receptor A2a [1] = target: Adenosine receptor A2a (Rattus norvegicus, UniProt P30543); experiment: Antagonist activity at adenosine A2A receptor in 5-HT-treated Wistar rat femoral vein assessed as inhibition of 2-octyn-1-yladenosine-induced vasodilation incubated for 10 mins prior to addition of 5-HT
Adenosine receptor A2a (Rattus norvegicus, UniProt P30543), sequence (P30543 whole entry): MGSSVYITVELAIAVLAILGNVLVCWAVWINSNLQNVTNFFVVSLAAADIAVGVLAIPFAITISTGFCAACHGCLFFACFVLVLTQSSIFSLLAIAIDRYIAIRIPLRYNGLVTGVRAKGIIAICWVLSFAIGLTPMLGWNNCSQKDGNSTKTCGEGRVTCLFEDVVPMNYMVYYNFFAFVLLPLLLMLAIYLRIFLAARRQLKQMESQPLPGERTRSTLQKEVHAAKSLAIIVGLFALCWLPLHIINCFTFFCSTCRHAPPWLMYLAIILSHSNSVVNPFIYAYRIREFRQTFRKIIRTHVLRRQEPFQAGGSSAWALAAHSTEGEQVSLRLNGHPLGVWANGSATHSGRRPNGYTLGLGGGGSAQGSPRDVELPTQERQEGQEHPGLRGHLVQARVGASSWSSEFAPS

Mus musculus [2] = experiment: Anticataleptogenic activity in ddY mouse assessed as reduction in haloperidol-induced catelepsy at 3 mg/kg, po measured after 1 to 7 hrs; assay type: functional, organism-based; parameters: dose 3 mg/kg
Rattus norvegicus [3] = experiment: Antiparkinsonian activity in unilateral 6-hydroxydopamine-lesioned Sprague-Dawley rat assessed as potentiation of L-DOPA-induced turning behavior at 3 mg/kg, po measured for 15 mins; assay type: functional, organism-based; parameters: dose 3 mg/kg
Rattus norvegicus [4] = experiment: Antiparkinsonian activity in unilateral 6-hydroxydopamine-lesioned Sprague-Dawley rat assessed as induction of stereotyped behavior at 3 mg/kg, po measured for 15 mins; assay type: functional, organism-based; parameters: dose 3 mg/kg
Adenosine receptor A2a [5] = target: Adenosine receptor A2a (Homo sapiens, UniProt P29274); experiment: biochemical
Adenosine receptor A2a (Homo sapiens, UniProt P29274), sequence (P29274 whole entry): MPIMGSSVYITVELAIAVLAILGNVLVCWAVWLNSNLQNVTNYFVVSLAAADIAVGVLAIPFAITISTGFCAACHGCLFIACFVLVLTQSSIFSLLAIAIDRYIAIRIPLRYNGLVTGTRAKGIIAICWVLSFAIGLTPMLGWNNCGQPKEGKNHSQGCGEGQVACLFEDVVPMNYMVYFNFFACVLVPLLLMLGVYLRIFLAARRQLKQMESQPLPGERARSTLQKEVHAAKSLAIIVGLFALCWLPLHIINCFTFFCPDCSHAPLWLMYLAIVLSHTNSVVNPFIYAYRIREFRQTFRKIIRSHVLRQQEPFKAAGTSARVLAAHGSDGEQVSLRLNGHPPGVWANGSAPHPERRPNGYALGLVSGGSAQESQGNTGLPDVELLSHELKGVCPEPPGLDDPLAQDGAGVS
Description: Displacement of [3H]-CGS-21680 from human adenosine A2A receptor expressed in HEK293 cells after 90 mins

Mus musculus [6] = experiment: Anticataleptogenic activity in po dosed ddY mouse assessed as reduction in haloperidol-induced catelepsy measured after 5 hrs; assay type: functional; details: for minimal effective dose: read-out: MED
[7] = target: Adenosine receptor A2a (Rattus norvegicus) (UniProt P30543); experiment: Potency index, ratio of istradefylline IC50 to compound IC50 for adenosine A2A receptor in 5-HT-treated Wistar rat femoral vein assessed as inhibition of 2-octyn-1-yladenosine-induced vasodilation
Adenosine receptor A2a (Rattus norvegicus), sequence (P30543 whole entry): as the sequence (P30543 whole entry) above

IC50 (Adenosine receptor A2a [1]) [nM]	Structure (SMILES)	further results
9000	CCCCCCC#Cc1nc(N)c2ncn(C)c2n1	
> 10000	CCCCCCC#Cc1nc(N)c2ncn(CCC)c2n1	
> 10000	CCCCCCC#Cc1nc(N)c2ncn(C3CCCC3)c2n1	
6700	CCCCCCC#Cc1nc(N)c2ncn(CC)c2n1	
22.8	C#CCn1c(-c2cccc(F)c2)nc2c(N)nc(C#CCCCCCC)nc21	
3.6	C#CCn1c(-c2ccco2)nc2c(N)nc(C#CCCCCCC)nc21	
> 10000	CCCCCCC#Cc1nc(N)c2ncn(CC#N)c2n1	
> 10000	CCCCCCC#Cc1nc(N)c2ncn(CCO)c2n1	
1.9	C#CCn1c(-n2nccn2)nc2c(N)nc(C#CCCCCCC)nc21	
5.1	C#CCn1c(Br)nc2c(N)nc(C#CCCCCCC)nc21	Activity (Mus musculus [2]): Active; Activity (Rattus norvegicus [3]): Active; Activity (Rattus norvegicus [4]): inactive; Ki (Adenosine receptor A2a [5]): 0.56 nM; Activity (Mus musculus [6]): Dose-dependent effect; minimal effective dose (Mus musculus [6]): 3 mg/kg
	CCn1c(=O)c2c(nc(/C=C/c3ccc(OC)c(OC)c3)n2C)n(CC)c1=O [ISTRADEFYLLINE]	Activity (Mus musculus [2]): Active; Activity (Mus musculus [6]): Dose-dependent effect; minimal effective dose (Mus musculus [6]): 3 mg/kg
97.3	C#CCn1cnc2c(N)nc(C#CC3(O)CCCCC3)nc21	
0.4	C#CCn1c(-c2ccco2)nc2c(N)nc(C#CC3(O)CCCCC3)nc21	Ratio IC50 [7]: 570
75.5	C#CCn1c(-c2ccccc2)nc2c(N)nc(C#CCCCCCC)nc21	
200	C#CCn1cnc2c(N)nc(C#CCCCCCC)nc21	
0.5	C#CCn1c(Br)nc2c(N)nc(C#CC3(O)CCCCC3)nc21	
6	C#CCn1c(Cl)nc2c(N)nc(C#CCCCCCC)nc21	
> 10000	C=CCn1cnc2c(N)nc(C#CCCCCCC)nc21	
3	C#CCn1c(Cl)nc2c(N)nc(C#CC3(O)CCCCC3)nc21	
> 10000	CCCCCCC#Cc1nc(N)c2ncn(Cc3ccccc3)c2n1	
